Measurements as given in patent publication US11247987B2, “Inhibiting ubiquitin specific peptidase 30” (FORMA Therapeutics, Inc., priority 2017, dated 2022).

These molecules were tested against T1, human recombinant USP30 (Homo sapiens, UniProt Q70CQ3) (assay: Ubiquitin-Rhodamine 110 Assay for USP30 Activity (USP30 Inhibitor Biochemical Assay)). Conditions: 0.2 nM USP30, 25 nM Ub-Rh110, 30 min preincubation, 30 min at room temperature; read-out: USP30 potency range (USP30 biochemical IC50 assay, IC50 ranges).
T1 construct: purchased Boston Biochem E-582
T1 sequence (Q70CQ3 1-517): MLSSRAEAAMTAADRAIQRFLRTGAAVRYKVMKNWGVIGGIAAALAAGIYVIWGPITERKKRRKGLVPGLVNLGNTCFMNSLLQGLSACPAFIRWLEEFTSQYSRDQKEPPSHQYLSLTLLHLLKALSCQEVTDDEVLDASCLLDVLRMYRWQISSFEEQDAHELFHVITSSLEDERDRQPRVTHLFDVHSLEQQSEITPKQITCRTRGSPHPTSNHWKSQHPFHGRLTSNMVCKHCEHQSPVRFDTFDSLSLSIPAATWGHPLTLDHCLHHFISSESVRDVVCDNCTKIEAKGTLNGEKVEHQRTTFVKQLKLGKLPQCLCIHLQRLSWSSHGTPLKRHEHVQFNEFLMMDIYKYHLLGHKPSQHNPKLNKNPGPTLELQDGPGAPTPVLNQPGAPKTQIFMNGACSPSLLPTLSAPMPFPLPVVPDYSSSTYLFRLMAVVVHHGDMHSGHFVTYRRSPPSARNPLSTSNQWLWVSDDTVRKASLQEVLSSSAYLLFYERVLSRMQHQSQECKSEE
Method: Example A: Biochemical Assay: Ubiquitin-Rhodamine 110 Assay for USP30 Activity (USP30 Inhibitor Biochemical Assay)
The assay was performed in a final volume of 9 μL in assay buffer containing 20 mM Tris-HCl (pH 8.0, (1M Tris-HCl, pH 8.0 solution; Corning 46-031-CM)), 1 mM GSH (L-glutathione reduced, Sigma-Aldrich, G4251-100G), 0.03% BGG (0.22 μM filtered, Sigma, G7516-25G), and 0.01% Triton X-100 (Sigma, T9284-10L). Nanoliter quantities of 10-point, 3-fold serial dilution in DMSO were pre-dispensed into 1536 assay plates (Corning, #3724BC) for a final test concentration of 25 μM to 1.3 nM, top to lowest dose, respectively. Concentration and incubation times were optimized for the maximal signal-to-background while maintaining initial velocity conditions at a fixed substrate concentration. The final concentration of USP30 (human recombinant USP30, Boston Biochem, cat. # E-582) in the assay was 0.2 nM. […] 3 μL of 2×USP30 was added to assay plates (pre-stamped with compound), preincubated for 30 minutes and then treated with 3 μL of 2×Ub-Rh110. Plates were incubated for 30 minutes at room temperature before addition of 3 μL of stop solution (final concentration of 10 mM citric acid (Sigma, 251275-500G)). Fluorescence was read on the Envision (excitation at 485 nm and emission at 535 nm; Perkin Elmer) or on the PheraSTAR (excitation at 485 nm and emission at 535 nm; BMG Labtech).
For all assay formats data were reported as percent inhibition compared with control wells based on the following equation: % inh=1−((FLU−AveLow)/(AveHigh−AveLow)) where FLU=measured Fluorescence, AveLow=average Fluorescence of no enzyme control (n=16), and AveHigh=average Fluorescence of DMSO control (n=16). IC50 values were determined by curve fitting of the standard 4 parameter logistic fitting algorithm included in the Activity Base software package: IDBS XE Designer Model205. Data is fitted using the Levenburg Marquardt algorithm.
Work on `C[C@H]1CCCC[C@@H]1c1cnc(NC(=O)[C@H]2C[C@H](NC#N)C2)s1` [Compound 1-23, (1r,3r)-3-(cyanoamino)-N-{5-[(1S,2S)-2-methylcyclohexyl]-1,3-thiazol-2-yl}cyclobutane-1-carboxamide] yielded an IC50 of under 100 nM.
`C[C@@H]1CCCC[C@H]1c1cnc(NC(=O)[C@H]2C[C@H](NC#N)C2)s1` [Compound 1-24, (1r,3r)-3-(cyanoamino)-N-{5-[(1R,2R)-2-methylcyclohexyl]-1,3-thiazol-2-yl}cyclobutane-1-carboxamide] gave an IC50 of under 100 nM.
`N#CN[C@H]1C[C@H](C(=O)Nc2nc(C3CC3)c(C3CCCCC3)s2)C1` [Compound 1-25, (1r,3r)-3-(cyanoamino)-N-(5-cyclohexyl-4-cyclopropyl-1,3-thiazol-2-yl)cyclobutane-1-carboxamide] was tested, and the IC50 was under 100 nM.
With `N#CN[C@H]1C[C@H](C(=O)Nc2nc(-c3cnn(C4CC4)c3)c(C3CCCCC3)s2)C1` [Compound 1-26, (1r,3r)-3-(cyanoamino)-N-[5-cyclohexyl-4-(1-cyclopropyl-1H-pyrazol-4-yl)-1,3-thiazol-2-yl]cyclobutane-1-carboxamide] the IC50 was under 100 nM.
`N#CN[C@H]1C[C@H](C(=O)Nc2cc(C(F)(F)F)ccn2)C1` [Compound 1-27, (1r,3r)-3-(cyanoamino)-N-[4-(trifluoro-methyl)pyridin-2-yl]cyclobutane-1-carboxamide] was tested, and the IC50 was 100 to 1000 nM.
In the case of `N#CN[C@H]1C[C@H](C(=O)Nc2ncc([C@@H]3CCCCO3)s2)C1` [Compound 1-28, (1r,3r)-3-(cyanoamino)-N-{5-[(2S)-oxan-2-yl]-1,3-thiazol-2-yl}cyclobutane-1-carboxamide], the IC50 is reported as 1000 to 10000 nM.
`Cc1nc(NC(=O)[C@H]2C[C@H](NC#N)C2)sc1C1CCCCC1` [Compound 1-29, (1r,3r)-3-(cyanoamino)-N-(5-cyclohexyl-4-methyl-1,3-thiazol-2-yl)cyclobutane-1-carboxamide] was tested, and the IC50 was under 100 nM.
In the case of `Cn1nc(NC(=O)[C@H]2C[C@H](NC#N)C2)cc1C1CCCCC1` [Compound 1-30, (1r,3r)-3-(cyanoamino)-N-(5-cyclohexyl-1-methyl-1H-pyrazol-3-yl)cyclobutane-1-carboxamide], the IC50 is reported as 100 to 1000 nM.
For `N#CN[C@H]1C[C@H](C(=O)Nc2nc(C(F)(F)F)c(C3CCCCC3)s2)C1` [Compound 1-31, (1r,3r)-3-(cyanoamino)-N-[5-cyclohexyl-4-(trifluoromethyl)-1,3-thiazol-2-yl]cyclobutane-1-carboxamide], the IC50 was under 100 nM.
In the case of `N#CN[C@H]1C[C@H](C(=O)Nc2ncc([C@H]3CCCC[C@H]3C(F)(F)F)s2)C1` [Compound 1-32, (1r,3r)-3-(cyanoamino)-N-{5-[(1S,2R)-2-(trifluoromethyl)cyclo-hexyl]-1,3-thiazol-2-yl}cyclobutane-1-carboxamide], the IC50 is reported as 100 to 1000 nM.
`N#CN[C@H]1C[C@H](C(=O)Nc2ncc([C@@H]3CCCC[C@@H]3C(F)(F)F)s2)C1` [Compound 1-33, (1r,3r)-3-(cyanoamino)-N-{5-[(1R,2S)-2-(trifluoromethyl)cyclo-hexyl]-1,3-thiazol-2-yl}cyclobutane-1-carboxamide] was tested, and the IC50 was 100 to 1000 nM.
`N#CN[C@H]1C[C@H](C(=O)Nc2ncc([C@H]3CCCC[C@@H]3C(F)(F)F)s2)C1` [Compound 1-34, (1r,3r)-3-(cyanoamino)-N-{5-[(1S,2S)-2-(trifluoromethyl)cyclo-hexyl]-1,3-thiazol-2-yl}cyclobutane-1-carboxamide] gave an IC50 of 100 to 1000 nM.
For `N#CN[C@H]1C[C@H](C(=O)Nc2nc(Cl)c(C3CC3)s2)C1` [Compound 1-36, (1r,3r)-N-(4-chloro-5-cyclopropyl-1,3-thiazol-2-yl)-3-(cyanoamino)cyclo-butane-1-carboxamide], the IC50 was under 100 nM.
`N#CN[C@H]1C[C@H](C(=O)Nc2ncc([C@@H]3CC4CCC3CC4)s2)C1` [Compound 1-37, (1r,3r)-N-{5-[(2R)-bicyclo[2.2.2]octan-2-yl]-1,3-thiazol-2-yl}-3-(cyanoamino)cyclo-butane-1-carboxamide] was tested, and the IC50 was under 100 nM.
